Assay results taken from patent publication US12410208B2, “(2-acetamidyl)thio-beta-D-galactopyranoside derivatives” (Idorsia Pharmaceuticals Ltd, priority 2020, dated 2025).
Read-outs that look alike come from different tables or passages of the source.

What was measured:
[1] = target: biotinylated human Gal-3 (hGal-3) (Homo sapiens, UniProt P17931); experiment: Competitive binding assay: biotinylated hGal-3 binding to microplate-adsorbed asialofetuin (ASF), spectrophotometric
Method in brief: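 Serially diluted compounds competed with asialofetuin on the plate for biotinylated human Gal-3 during a 3 h incubation at 4° C. Streptavidin-peroxidase with ABTS gave the spectrophotometric signal. IC50 values were averaged over repeat runs.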

human Gal-1 (hGal-1) = human Gal-1 (hGal-1) (Homo sapiens, UniProt P09382); experiment: Competitive binding assay: biotinylated hGal-1 binding to microplate-adsorbed asialofetuin (ASF), spectrophotometric; details: hGal-1 binding to asialofetuin; Table 15; R and S epimers of selected Examples also listed; read-out: IC50 (Galectin-1 inhibition)
Chain of human Gal-1 (hGal-1) (P09382 whole entry): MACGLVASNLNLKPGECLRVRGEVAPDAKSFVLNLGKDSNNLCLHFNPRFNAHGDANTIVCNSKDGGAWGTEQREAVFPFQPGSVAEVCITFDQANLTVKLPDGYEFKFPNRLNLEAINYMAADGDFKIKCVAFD
Method in brief: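 Spectrophotometric competition readout with ABTS after streptavidin-peroxidase (80 ng/mL, 1 h, 4 °C) detection of bound biotinylated hGal-1.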

[2] = Gal-3 inhibition, Table 5, read-out: IC50
[3] = Table 8, hGal-3, read-out: IC50 (Gal-3 inhibition)
[4] = Table 12, hGal-3, read-out: IC50 (Gal-3 inhibition)
[5] = Table 10, hGal-3, read-out: IC50 (Gal-3 inhibition)

Chain of biotinylated human Gal-3 (hGal-3) (P17931 whole entry): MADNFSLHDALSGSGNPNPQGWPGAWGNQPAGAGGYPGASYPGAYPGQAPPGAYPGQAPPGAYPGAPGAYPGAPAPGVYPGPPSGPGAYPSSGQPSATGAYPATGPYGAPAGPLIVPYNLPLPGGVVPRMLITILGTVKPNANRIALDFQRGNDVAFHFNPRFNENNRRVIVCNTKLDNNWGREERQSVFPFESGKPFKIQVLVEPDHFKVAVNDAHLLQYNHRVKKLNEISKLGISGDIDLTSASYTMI

Row | SMILES | IC50 [1, 2] [nM] | IC50 (human Gal-1 (hGal-1)) [nM] | other results
1 | O=C(C(S[C@@H]1O[C@H](CO)[C@H](O)[C@H](n2cc(-c3cc(F)c(F)c(F)c3)nn2)[C@H]1O)C1(O)CCCCC1)N1CCCCC1 (stereo partly drawn) [Example 2.39.208., 2-(((2S,3R,4S,5R,6R)-3,5-Dihydroxy-6-(hydroxymethyl)-4-(4-(3,4,5-trifluorophenyl)-1H-1,2,3-triazol-1-yl)tetrahydro-2H-pyran-2-yl)thio)-2-(1-hydroxycyclohexyl)-1-(piperidin-1-yl)ethan-1-one] | 20 | 70 | 
2 | CN(CC1CC1)C(=O)[C@H](S[C@@H]1O[C@H](CO)[C@H](O)[C@H](n2cc(-c3cc(F)c(F)c(F)c3)nn2)[C@H]1O)C1(O)CC(F)(F)C1 [Example 2.33.218R., (R)-N-(Cyclopropylmethyl)-2-(3,3-difluoro-1-hydroxycyclobutyl)-2-(((2S,3R,4S,5R,6R)-3,5-dihydroxy-6-(hydroxymethyl)-4-(4-(3,4,5-trifluorophenyl)-1H-1,2,3-triazol-1-yl)tetrahydro-2H-pyran-2-yl)thio)-N-methylacetamide] | 440 | 580 | 
3 | CCN(C)C(=O)[C@H](S[C@@H]1O[C@H](CO)[C@H](O)[C@H](n2cc(-c3cc(F)c(F)c(F)c3)nn2)[C@H]1O)C1(O)CC(F)(F)C1 [Example 2.33.203R., (R)-2-(3,3-Difluoro-1-hydroxycyclobutyl)-2-(((2S,3R,4S,5R,6R)-3,5-dihydroxy-6-(hydroxymethyl)-4-(4-(3,4,5-trifluorophenyl)-1H-1,2,3-triazol-1-yl)tetrahydro-2H-pyran-2-yl)thio)-N-ethyl-N-methylacetamide] | 1450 | 4200 | 
4 | CN(CC(C)(C)C)C(=O)[C@@H](S[C@@H]1O[C@H](CO)[C@H](O)[C@H](n2cc(-c3cc(F)c(F)c(F)c3)nn2)[C@H]1O)C1(O)CCC1 [Example 2.34.228S., (S)-2-(((2S,3R,4S,5R,6R)-3,5-Dihydroxy-6-(hydroxymethyl)-4-(4-(3,4,5-trifluorophenyl)-1H-1,2,3-triazol-1-yl)tetrahydro-2H-pyran-2-yl)thio)-2-(1-hydroxycyclobutyl)-N-methyl-N-neopentylacetamide] | 120 | 90 | 
5 | O=C([C@H](S[C@@H]1O[C@H](CO)[C@H](O)[C@H](n2cc(-c3cc(F)c(F)c(F)c3)nn2)[C@H]1O)C1(O)CCC1)N1CCC1 [Example 2.34.206R., (R)-1-(Azetidin-1-yl)-2-(((2S,3R,4S,5R,6R)-3,5-dihydroxy-6-(hydroxymethyl)-4-(4-(3,4,5-trifluorophenyl)-1H-1,2,3-triazol-1-yl)tetrahydro-2H-pyran-2-yl)thio)-2-(1-hydroxycyclobutyl)ethan-1-one] | 1800 | 6910 | 
6 | O=C([C@@H](S[C@@H]1O[C@H](CO)[C@H](O)[C@H](n2cc(-c3cc(F)c(F)c(F)c3)nn2)[C@H]1O)C1(O)CCC1)N1CCCCC1 [Example 2.34.208S., (S)-2-(((2S,3R,4S,5R,6R)-3,5-Dihydroxy-6-(hydroxymethyl)-4-(4-(3,4,5-trifluorophenyl)-1H-1,2,3-triazol-1-yl)tetrahydro-2H-pyran-2-yl)thio)-2-(1-hydroxycyclobutyl)-1-(piperidin-1-yl)ethan-1-one] | 140 | 140 | 
7 | CN(CC(F)(F)F)C(=O)C(S[C@@H]1O[C@H](CO)[C@H](O)[C@H](n2cc(-c3cc(F)c(F)c(F)c3)nn2)[C@H]1O)C1(O)CCCC1 (stereo partly drawn) [Example 2.38.219., 2-(((2S,3R,4S,5R,6R)-3,5-Dihydroxy-6-(hydroxymethyl)-4-(4-(3,4,5-trifluorophenyl)-1H-1,2,3-triazol-1-yl)tetrahydro-2H-pyran-2-yl)thio)-2-(1-hydroxycyclopentyl)-N-methyl-N-(2,2,2-trifluoroethyl)acetamide] | 40 | 110 | 

The next lines start with results.

Row | IC50 [1, 2] [nM] | IC50 (human Gal-1 (hGal-1)) [nM] | SMILES | other results
8 |  | 100 | CCN(C)C(=O)C(S[C@@H]1O[C@H](CO)[C@H](O)[C@H](n2cc(-c3cc(F)c(F)c(F)c3)nn2)[C@H]1O)C1(O)CCN(C(=O)OC)CC1 (stereo partly drawn) [Example 2.50.203., Methyl 4-(1-(((2S,3R,4S,5R,6R)-3,5-dihydroxy-6-(hydroxymethyl)-4-(4-(3,4,5-trifluorophenyl)-1H-1,2,3-triazol-1-yl)tetrahydro-2H-pyran-2-yl)thio)-2-(ethyl(methyl)amino)-2-oxoethyl)-4-hydroxypiperidine-1-carboxylate] | IC50 [1, 3]: 70 nM
9 |  | 100 | CO[C@@H]1[C@@H](n2cc(-c3cc(F)c(F)c(F)c3)nn2)[C@@H](O)[C@@H](CO)O[C@H]1SC(C(=O)N1CCOCC1)C1(O)CCC(F)(F)CC1 (stereo partly drawn) [Example 2.44.244.I., 2-(4,4-Difluoro-1-hydroxycyclohexyl)-2-(((2S,3R,4S,5R,6R)-5-hydroxy-6-(hydroxymethyl)-3-methoxy-4-(4-(3,4,5-trifluorophenyl)-1H-1,2,3-triazol-1-yl)tetrahydro-2H-pyran-2-yl)thio)-1-morpholinoethan-1-one] | IC50 [1, 4]: 70 nM
10 |  | 30 | CCN(C)C(=O)C(S[C@@H]1O[C@H](CO)[C@H](O)[C@H](n2cc(-c3cc(F)c(F)c(F)c3)nn2)[C@H]1O)C1(O)CCN(S(C)(=O)=O)CC1 (single isomer, unassigned) [Example 2.47.203S.] | IC50 [1, 3]: 10 nM
11 |  | 130 | CCN(CC1CC(F)(F)C1)C(=O)C(S[C@@H]1O[C@H](CO)[C@H](O)[C@H](n2cc(-c3cc(F)c(F)c(F)c3)nn2)[C@H]1OC)C1(O)CCC(F)(F)CC1 (stereo partly drawn) [Example 2.44.256.I.] | IC50 [1, 5]: 50 nM
12 | 110 | 210 | CN(CC(F)(F)F)C(=O)C(S[C@@H]1O[C@H](CO)[C@H](O)[C@H](n2cc(-c3cc(F)c(F)c(F)c3)nn2)[C@H]1O)C1(O)CCOCC1 (stereo partly drawn) [Example 2.41.219., 2-(((2S,3R,4S,5R,6R)-3,5-Dihydroxy-6-(hydroxymethyl)-4-(4-(3,4,5-trifluorophenyl)-1H-1,2,3-triazol-1-yl)tetrahydro-2H-pyran-2-yl)thio)-2-(4-hydroxytetrahydro-2H-pyran-4-yl)-N-methyl-N-(2,2,2-trifluoroethyl)acetamide] | 
13 |  | 110 | CO[C@@H]1[C@@H](n2cc(-c3cc(F)c(F)c(F)c3)nn2)[C@@H](O)[C@@H](CO)O[C@H]1SC(C(=O)N(C)C(C)C)C1(O)CCC(F)(F)CC1 (stereo partly drawn) [Example 2.44.242.I., 2-(4,4-Difluoro-1-hydroxycyclohexyl)-2-(((2S,3R,4S,5R,6R)-5-hydroxy-6-(hydroxymethyl)-3-methoxy-4-(4-(3,4,5-trifluorophenyl)-1H-1,2,3-triazol-1-yl)tetrahydro-2H-pyran-2-yl)thio)-N-isopropyl-N-methylacetamide] | IC50 [1, 4]: 80 nM
14 |  | > 100000 | CCN(C(=O)[C@H](S[C@@H]1O[C@H](CO)[C@H](O)[C@H](n2cc(-c3cc(F)c(F)c(F)c3)nn2)[C@H]1OC)C1(O)CCC(F)(F)CC1)C1CC1 [Example 2.44.238R.I.] | IC50 [1, 5]: 1000 nM
15 |  | 150 | CCN(C)C(=O)C(S[C@@H]1O[C@H](CO)[C@H](O)[C@H](n2cc(-c3cc(C)cc(C#N)c3)nn2)[C@H]1O)C1(O)CCOCC1 (stereo partly drawn) [Example 19.41.203., 2-(((2S,3R,4S,5R,6R)-4-(4-(3-Cyano-5-methylphenyl)-1H-1,2,3-triazol-1-yl)-3,5-dihydroxy-6-(hydroxymethyl)tetrahydro-2H-pyran-2-yl)thio)-N-ethyl-2-(4-hydroxytetrahydro-2H-pyran-4-yl)-N-methylacetamide] | IC50 ([1]; Table 11, hGal-3, read-out: IC50 (Gal-3 inhibition)): 150 nM
